Consider 26 molecules from PubChem BioAssay (NCI).

Values joined by “and” are separate entries in the source; they are usually repeats but may differ in a detail not shown here. Equal entries are not always repeated.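 Cultured in 96-well plates, cells were exposed to test compound for 48 hours across five concentrations. At the GI50, growth is halved. TGI marks complete inhibition of growth.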 Some results are limits rather than exact numbers.

Holding throughout (assay): NCI tumour cell line growth inhibition, 48 h
The subject of experiment [1] is DLD-1 colon.
Experiment [2] relates to DMS 273 small cell lung.
The test system of experiment [3] is LXFL 529 NSCLC.
Experiment [4] deals with M19-MEL melanoma.
Experiment [5] has as its system XF 498 CNS.
The subject of experiment [6] is DMS 114 small cell lung.
In experiment [7] the test system is RXF-631 renal.
Experiment [8] relates to SNB-78 CNS.
In experiment [9] the test system is MDA-N.
The subject of experiment [10] is P388/ADR leukemia.
In experiment [11] the test system is SN12K1 renal.

For `O=C(O)CCNS(=O)(=O)c1ccc(NC(=O)c2ccccc2)cc1`, the TGI in experiment [1], in [2], in [3], in [4] and in [5] was over 100 µM each time.

For `CCc1cccc(C)c1NS(=O)(=O)c1ccccc1`, the TGI in experiment [1], in experiment [6], in experiment [2], in experiment [3], in [4] and in experiment [7] was over 100 µM throughout. Further, the TGI in [8] and in experiment [5] was over 100 µM each time.

In [9], `CNC(=S)Nc1ccc(OC)c2ccccc12` registered a TGI of over 10 µM.

On to `C[N+](C)(C)CCC(=O)CC[N+](C)(C)C`, for which the TGI in [1] came out at 39.2 µM; in [6] it was 44.2 µM; in [2], 63.6 µM; in experiment [3], 30.4 µM; in experiment [4] it was 54.5 µM; in [8] it was 50.8 µM. In experiment [5], the TGI was 46.6 µM.

In the case of `Cc1nc(C(N)=O)c(N)n1CCN1CCN(C(=O)CCCCCCCCCCNC2N=CNc3nc[nH]c32)CC1` (stereo not drawn), the TGI in [6] was over 100 µM; in experiment [3], 71.6 µM; in experiment [4] it was over 100 µM; in [7], over 100 µM; in [8], over 100 µM.

In turn, `CN1CCN(C(=S)N(C)C(=O)c2ccco2)CC1` showed a TGI in [9] of over 100 µM.

On to `O=C(NCCCOC(=O)CCCCCCCCC(=O)OCCCNC(=O)NC(=O)c1c[nH]c(=O)[nH]c1=O)NC(=O)c1c[nH]c(=O)[nH]c1=O`, for which the TGI in [1], in experiment [2], in [3], in [4], in experiment [7] and in [8] was over 100 µM each time. In [5], this molecule yielded a TGI of over 100 µM.

Regarding `c1ccc(NN(Cc2cnccn2)c2ccccc2)cc1`, the TGI in experiment [9] is over 100 µM.

As to `CCOC(=O)Cc1nc2ccc3c(c2[nH]c1=O)C(=O)c1ccccc1C3=O`, the TGI in experiment [1], in [6], in experiment [2], in experiment [3], in [4] and in experiment [7] was over 100 µM each time. Also, the TGI in experiment [8] and in experiment [5] was over 100 µM throughout.

`O=c1cc(-c2cccs2)[nH]c2cc3c(cc12)OCO3`: the TGI in [1] is over 100 µM; in experiment [6], over 24.5 µM; in [2], over 100 µM; in experiment [3] it was over 100 µM; in experiment [4], over 100 µM; in [7] it was over 100 µM. For the same molecule, the TGI in experiment [8] is over 100 µM; in [5], 15.3 µM.

Regarding `CC1=C(C(=O)Nc2ccccc2C)C(c2ccc(Cl)cc2)C(C(=O)Nc2ccccc2C)=C(C)N1`, the TGI in experiment [1], in experiment [6], in [3], in [4], in [7] and in experiment [8] was over 100 µM each time. In addition, the TGI in experiment [5] was over 100 µM.

In turn, `C[C@@H](NC(C#N)c1ccco1)c1ccccc1` (stereo partly drawn) showed a TGI in experiment [9] of over 100 µM.

In turn, `CCSCCCSCCSCC` showed a TGI in experiment [9] of over 100 µM.

Take `O=C1CC(CC(=O)C2CCCCC2=O)C(=O)N1` (stereo not drawn): the TGI in experiment [1], in [6], in [2], in experiment [3], in experiment [4] and in experiment [8] was over 100 µM in each case. Also, the TGI in [5] was over 100 µM.

Regarding `O=C1C[C@H]2CCCN2[C@@H](c2ccccc2)C1`, the TGI in experiment [2], in experiment [3], in experiment [4], in [7], in [8] and in experiment [5] was over 100 µM throughout.

Take `Cc1ccc(S(=O)(=O)SC/C=C\CSS(=O)(=O)c2ccc(C)cc2)cc1`: the TGI was > 100 µM and 47.7 µM in [1]; > 43.7 µM and 35.3 µM in [2]; > 67.8 µM and 33.9 µM in experiment [3]; > 100 µM and 95.1 µM in experiment [4]; over 31.6 µM in [9]; > 100 µM and 89.5 µM in experiment [8]. Also, in experiment [5], the TGI is > 100 µM and 43.9 µM. Moreover, the GI50 in [2] is 3.92 µM and 18.3 µM; in experiment [3] it was 8.61 µM and 17.5 µM.

Turning to `COC1=NCc2ccccc2-c2ccccc21`, the TGI in [1], in experiment [6], in experiment [2], in experiment [8] and in experiment [5] was over 100 µM each time.

For the molecule `COc1cc(Cl)cc(=O)c(O)c1OC`, the TGI in [1] is over 100 µM; in experiment [6], 67.6 µM; in experiment [2] it was over 100 µM; in [3], over 100 µM; in [4], over 100 µM; in [8] it was over 100 µM. Further, the TGI in experiment [5] is over 100 µM.

`CN(C)CCNC(=O)Cn1ccc(=O)c2cc([N+](=O)[O-])ccc21` showed a TGI in experiment [9] of over 100 µM.

`O=C1C=CC(=O)c2c1ccc1c3ccccc3n(Cc3ccc([N+](=O)[O-])cc3)c21`: in experiment [9], the TGI was over 100 µM.

Consider `O=[N+]([O-])c1ccccc1N=Nc1c(O)[nH]c2cccc(C(F)(F)F)c12`, for which the TGI in experiment [9] stood at 33.3 µM.

`CC(=O)Nc1ccc(-c2cc(C(=O)O)c3cc4ccccc4cc3n2)cc1` yielded a TGI in [9] of over 100 µM.

With `CC1CC(C)CC(C)C(O)/C(C#N)=C/C=C/CC(C2CCCC2C(=O)O)OC(=O)CC(O)C(C)C1` (stereo not drawn), the TGI is 0.0819 µM in experiment [1]; under 0.016 µM in [6]; 0.11 µM in experiment [2]; 0.0397 µM in experiment [3]; 0.0532 µM in [4]; 0.0646 µM in experiment [9]. The TGI in experiment [10] was under 0.0143 µM; in [7], 0.254 µM; in [11], under 0.0223 µM; in [8], 0.13 µM; in experiment [5] it was under 0.0264 µM. The GI50 in experiment [9] is 0.0188 µM.

For the molecule `Oc1cc(Cc2ccccc2)c(Cc2ccccc2)cc1O`, the TGI in experiment [9] came out at 3.04 µM.

`CC(=O)c1c(O)c(C)c(O)c(Cc2c(O)c3c(c(C(=O)/C=C/c4ccccc4)c2O)OC(C)(C)C=C3)c1O` yielded a TGI in experiment [9] of over 100 µM.

As for `FC(F)(F)c1cccc(-c2nc3nc(Cl)c(Cl)nc3[nH]2)c1`, the TGI in [9] came out at 32 µM.
